Experiments:
ICR mice [1] = assay: immobility time of tail suspension in mice; format: in vivo; conditions: i.p.; for immobility time of tail suspension in mice: 60 minutes after dosing
Protocol: (§1) Animals used for experiments were adult male ICR mice weighing 18˜25 g, housed in 8 pcs/cages, regulated with a 12/12 hour light/dark cycle, maintained at a constant temperature of 23±1° C. and a humidity of 50˜60% and allowed ad libitum access to rodent chow and water. After animals were purchased from the experimental animal center and performed an adaptive housing, the experiment was allowed to start.
(§2) After animal adaptive housing, all the animals were randomly divided into three groups:
(§3) Group one: negative control group, intraperitoneally injected with 1% DMSO in physiological saline (10.0 ml/kg, i.p.);
Group two: experimental drug group, the mice were intraperitoneally injected respectively with different doses of the test compound Co. 1: 0.1, 0.5, 1, 5 and 10 mg/kg, i.p., the drug was formulated in 1% DMSO in physiological saline;
(§4) Group three: positive drug control group, the mice were intraperitoneally injected with Desipramine (20 mg/kg, i.p., the drug was formulated in 1% DMSO in physiological saline).
The experiment employed Shanghai Jiliang animal behavior video analysis system, wherein the experimental environment was kept absolutely silent, when grabbing animals and administrating, movements were gentle to minimize adverse reactions of mental condition and emotion brought by external stimulus. 60 minutes after dosing, the site 20 mm from the tail end was fixed and the mice were hung upside-down in an activity box for 6 minutes. The immobility time in later 4 minutes was analyzed.

ICR mice [2] = assay: spontaneous activity in mice; format: in vivo; conditions: each test dose (0.1, 0.5, 1, 5 and 10 mg/kg, i.p.); 60 minutes after dosing; P>0.05 compared with negative control
Protocol: as §1, §2, §3
Group two: experimental drug group, the mice were intraperitoneally injected respectively with different doses of test compound Co. 1: 0.1, 0.5, 1, 5 and 10 mg/kg, i.p., the drug was formulated in 1% DMSO in physiological saline. […]
The experiment employed Shanghai Jiliang animal behavior video analysis system, wherein the experimental environment was kept absolutely silent, when grabbing animals and administrating, movements were gentle to minimize adverse reactions of mental condition and emotion brought by external stimulus. […] The spontaneous activity box was connected to a recording apparatus and the activity conditions of mice within 30-60 minutes were recorded. The effects of drug or control substances on spontaneous activity in mice were determined.

hPPB = format: in vitro ADME; conditions: human plasma protein binding; read-out: hPPB % bound (converted)
rPPB = format: in vitro ADME; conditions: rat plasma protein binding; read-out: rPPB % bound (converted)
In vivo rat PK = conditions: for Cmax / half-life / bioavailability: po; for half-life: read-out: In vivo rat PK T½ (p.o.) (converted); for clearance: iv, read-out: In vivo rat PK CL (i.v.); for bioavailability: read-out: In vivo rat PK F %
From the text: The experiment was repeated for three times and the mean value was taken.

ICR mice [3] = assay: immobility time of forced swimming in mice; format: in vivo; conditions: i.p.
Protocol: as §1, §2, §3
Group two: experimental drug group, the mice were intraperitoneally injected respectively with different doses of test compound Co. 3: 0.1, 0.5, 1, 5 and 10 mg/kg, i.p., the drug was formulated in 1% DMSO in physiological saline;
as §4
The mice were placed in a large beaker with a height of about 40 cm and an internal diameter of about 19 cm, loaded with water with a temperature of 24˜25° C. inside. The water level reached 22 cm height (Porsolt et al., 1977). […] 30 minutes, or 60 minutes later, the mice were placed into a beaker loaded with water, and immobility time of animals within 5 minutes was measured. […]

[4] = from Zhao, Chinese Journal of Psychiatry, Vol. 35, No. 4; cited from earlier work
hMics binding = format: in vitro ADME; conditions: human microsomes; read-out: hMics binding % bound (converted)
rMics binding = format: in vitro ADME; conditions: rat microsomes; read-out: rMics binding % bound (converted)

Structure (SMILES)	fraction unbound (hPPB)	fraction unbound (rPPB)	Cmax (In vivo rat PK) [ng/mL]	half-life (In vivo rat PK) [h]	clearance (In vivo rat PK) [mL/min/kg]	bioavailability (In vivo rat PK) [%]	other results
CN1C[C@@H]2c3ncccc3Oc3cc(Cl)ccc3[C@@H]2C1 [Co. 1]	0.13	0.2	51	4.6	–	–	immobility time of tail suspension in mice (ICR mice [1]; 0.1 and 0.5 mg/kg): no effect; immobility time of tail suspension in mice (ICR mice [1]; 1.0, 5.0 and 10 mg/kg, P<0.05-0.01 compared to the negative control group): significantly inhibited; inhibitory effect on the immobility time of tail suspension compared to positive drug Desipramine (ICR mice [1]; Desipramine 20 mg/kg): similar; spontaneous activity in mice (ICR mice [2]): no significant effect
CN1C[C@@H]2c3ncccc3Oc3ccccc3[C@@H]2C1 [Co. 2]	0.45	0.63	17	8.9	139	12	–
CCN1C[C@@H]2c3ncc(C)cc3Oc3cc(F)c(C)cc3[C@@H]2C1 [Co. 3]	–	–	–	–	–	–	immobility time of forced swimming in mice (ICR mice [3]; 0.5, 1.0, 5.0 and 10 mg/kg, P<0.05-0.01 compared to the negative control group): significantly extended; effect on immobility time of forced swimming compared to positive drug Desipramine (ICR mice [3]; Desipramine 20 mg/kg, P<0.05): stronger
c1ccc2c(c1)Cc1cccnc1N1CCNCC21 (stereo not drawn) [Demethylated mirtazapine]	–	–	–	–	–	–	share of the drug activity of mirtazapine [4]: 3%-10%
CN1CCN2c3ncccc3Cc3ccccc3C2C1 (stereo not drawn) [Mirtazapine, reference compound]	0.2	0.11	30	–	101	14	fraction unbound (hMics binding): 0.69; fraction unbound (rMics binding): 0.79
